Measurements from US20250108029A1, “INHIBITORS OF THE INTERACTION BETWEEN THE ROCK AND PDK1 PROTEIN KINASES” (Université Paris Cite, priority 2021, published 2025).
Like-named read-outs stand apart in the source and are kept apart here.

How the values were obtained:
[1] = test system: peripheral blood mononuclear cells (PBMCs); experiment: Interferon secretion by PBMCs stimulated with influenza virus (THP1-Dual reporter); type: cell-based, human; settings: 20 μM, 1 h before stimulation by the influenza virus, 24 h
IRF transcription factor = experiment: IRF activation in THP1-Dual cells after cGAMP (luciferase assay); type: cell-based, human; settings: according to a dose effect; stimulation of the STING interferon pathway by cGAMP, 24 h
Description: The THP1-Dual reporter cell line was cultured at 5×10^5/ml. […] The THP1-Dual cells were stimulated for 24 h with the STING pathway agonist, cGAMP. Luciferase assay (luminometry)
The THP1-Dual cells express the Lucia luciferase reporter gene under a promoter containing five IFN response elements. The THP1-Dual cells allow the IRF pathway to be studied by measuring Lucia luciferase activity. Lucia luciferase activity is determined by means of the QUANTI-Luc Gold assay (InvivoGen). The THP1-Dual cells are cultured in a 96-well plate (200 μL/well). After LPS or R848 treatment, for each well, 10 μL of culture medium are added to 50 μL of QUANTI-Luc GOLD solution and the light signal produced is measured by means of a luminometer.

IRFs = experiment: Interferon pathway (IRF) activity in reporter cells fed supernatants of R848-stimulated PBMCs; type: cell-based, human; settings: for IC50: Homo sapiens, PBMC, read-out: IC50 IFR; for secretion of interferons on PBMCs: preventively, 1 h before stimulation by TLR7/8
From the text: (§1) The supernatants were collected for cytokine detection.

monocytes [2] = experiment: Intracellular TNFα production in isolated monocytes by flow cytometry; type: cell-based, human
[3] = test system: NF-κB transcription factor; experiment: NF-κB activity in THP1-Dual reporter cells fed supernatants of R848-stimulated PBMCs; settings: for IC50: Homo sapiens, THP1-Dual, read-out: IC50 NF-κB; for secretion of inflammatory cytokines on PBMCs: preventively, 1 h before stimulation by TLR7/8
Description: The in vitro experiments were carried out using human peripheral blood mononuclear cells (PBMCs) isolated by density with centrifugation using a medium for separating white blood cells from peripheral blood ([sequence] Technologies). […] The peripheral blood mononuclear cells (PBMCs) were cultured in RPMI 1640 (Sigma) containing 10% inactivated fetal calf serum and 1 mM glutamine (Hyclone, Logan, UT).
The PBMCs were cultured at 2×10^6 cells/ml. The cells were then incubated with the compounds of the invention at the indicated concentrations for 1 h before stimulation. The PBMCs were then stimulated for 24 h with the TLR7/8 agonist Resiquimod (R848) at 5 μg/ml. The supernatants were collected for cytokine detection.
The activity of the NF-κB transcription Factor and the induction of the interferon (IFN) pathway via interferon regulatory factors (IRFs) were measured using the THP1-Dual reporter cell line from InvivoGen. The PBMC culture supernatants were added to the THP1-Dual cultures at a rate of 0.4×10^6 cells/ml for 24 h. The activity of the NF-κB transcription factor was measured with QUANTI-Blue, a SEAP detection agent following the supplier's recommendations. The activity of the IRFs was measured with QUANTI-Luc, a luciferase detection reagent following the supplier's recommendations.

B lymphocytes = experiment: B lymphocyte activation (CD69) by flow cytometry after TLR9 stimulation; type: cell-based, human; settings: 20 μM, 1 h before TLR9 agonist CpG-A, 16 h
Description: The B lymphocytes were purified by negative selection with the “B Cell Isolation Kit” (Miltenyi).
The B lymphocytes were cultured at 1×10^6/ml. […] They were stimulated for 16 h (flow cytometry) with the TLR9 agonist CpG-A at […]. The cells were recovered for flow cytometry.
After washing, the cells were resuspended in PBS containing 2% of FCS and 2 mM of EDTA and then labeled with an anti-CD69 antibody (clone REA824) from Miltenyi Biotec, used at 1/100° for 30 min at 4° C. The cells were washed twice and then passed into flow cytometry. The data acquisition was carried out on the Canto II flow cytometer using Diva software (BD Biosciences, San Jose, CA). FlowJo software was used to analyze the data.

[4] = test system: NF-κB transcription factor; experiment: NF-κB activation in THP1-Dual cells (SEAP assay); type: cell-based, human; settings: according to a dose effect
Description: The THP1-Dual reporter cell line was cultured at 5×10^5/ml.
The THP1-Dual cells express the secreted embryonic alkaline phosphatase (SEAP) reporter gene under a promoter containing five copies of the NF-κB consensus transcriptional response element. The THP1-Dual cells allow the NF-κB pathway to be studied by monitoring the SEAP activity. The SEAP alkaline phosphatase activity is determined by means of the QUANTI-Blue colorimetric enzyme assay (InvivoGen). The THP1-Dual cells are cultured in a 96-well plate (200 μL/well). After LPS or R848 treatment, for each well, 20 μL of culture medium are added to 180 μL of the QUANTI-Blue solution and incubated at 37° C. for 2 h. Absorbance (measurement at 655 nm with a spectrophotometer (Bio-Rad Model 680 microplate reader) is proportional to SEAP activity.

[5] = test system: plasmacytoid dendritic cells (pDCs); type: cell-based, human
[6] = test system: THP1 human monocytic cell line; experiment: RT-qPCR of pro-inflammatory gene transcription in THP1-Dual monocytes; type: cell-based; settings: dose effect; for concentration from which transcription of the genes coding for TNFα and IL-1β is reduced: induced by LPS, 1 hour; for concentration from which transcription of the genes coding for TNFα, IL-6, MCP1 and IL-1β is reduced: induced by R848 5 μg/ml, 16 h
Description: The THP1-Dual cell lines were cultured at 1×10^6 cells/ml.
The THP1-Dual cells (InvivoGen) were stimulated for 16 h with the TLR7/8 agonist (R848) at 5 μg/ml or for 1 hour with the TLR4 agonist (LPS) at 100 ng·ml, respectively. The cells were washed in PBS and lysed to prepare the mRNAs for an RT-qPCR analysis.
The total RNAs are extracted from the cells with the E.Z.N.A. kit. Total RNA Kit 1 (Omega Bio-tek) according to the supplier's instructions. The RNA concentration is measured by means of a spectrophotometer (Nanodrop ND-1000). The total RNA is reverse-transcribed into cDNA by means of the PrimeScript RT Master Mix kit (Takara RR036A). The cDNA synthesis is carried out according to the following protocol: 300-500 ng of RNA in 8 μL of water free of RNase, supplemented with 2 μL of the reaction buffer (containing the PrimeScript reverse transcriptase, RNase inhibitors, oligo(dT) primers, random 6mers and the mix of dNTPs). The enzymatic reverse transcription reaction is carried out at 37° C. for 15 min. The enzyme is inactivated by incubating the sample at 85° C. for 15 sec.
The quantitative real-time PCR is carried out according to the following conditions: cDNA diluted to 1/10th is added to the following mixture: 3.8 μL of H2O, […] of sense and antisense primers (10 μM) (Table 3), 5 μL of Absolute qPCR SYBR Green Mix containing Thermo-Start DNA Polymerase, MgCl2, SYBR Green and dNTPs (Eurogentec). The assays are carried out in triplicate in a 384-well plate (Thermo Scientific). DNA amplification by quantitative PCR is carried out in the CFX384 system (Bio-Rad) with the following program: 3 min at 95° C./5 sec at 95° C. and 30 sec at 60° C. repeated 40 cycles/2 min at 72° C. and 30 sec at 95° C. followed by a dissociation step which makes it possible to verify the specificity of the amplification product. The DNA amplification data are analyzed with Bio-Rad CFX Manager software.

monocytes [7] = experiment: TNFα production in monocytes treated with siPDK1 or siCTL and stimulated with R848; type: cell-based, human; settings: 20 μM, 1 h before R848 1 μg/ml
pyruvate kinase (PK) = experiment: Pyruvate kinase activity assay; type: biochemical
Description: Inhibitors (2 μL) are added to 193 μL of a mixture containing PEP, ADP, MgSO4, β-NADH and L-lactic dehydrogenase. After reading at 340 nm, 7 μL of pyruvate kinase are added to the mixture. The samples are read at 340 nm every 1 to 2 min for 20 min.

[8] = test system: peripheral blood mononuclear cells (PBMCs); experiment: LegendPlex assay of cytokines in supernatants of stimulated PBMCs; settings: for secretion of TNFα, IL-1β, IL-6, IL-18, IL-23, IFNγ and MCP1 on PBMCs: stimulation by TLR4 (LPS 100 ng/ml, 24 h); for secretion of TNFα, IL-1β, IL-6, IL-10, IL-12 p70, IL-18, IL-23, IL-33, IFNα2, IFNγ and MCP1 on PBMCs: stimulation by TLR7/8 (R848 5 μg/ml, 24 h)
Description: The in vitro experiments were carried out using human peripheral blood mononuclear cells (PBMCs) isolated by density with centrifugation using a medium for separating white blood cells from peripheral blood ([sequence] Technologies). The blood from the healthy donors was obtained at the “Etablissement Frangais du Sang” (French Blood Establishment) (convention #07/CABANEL/106; Paris, France). […] The peripheral blood mononuclear cells (PBMCs) were cultured in RPMI 1640 (Sigma) containing 10% inactivated fetal calf serum and 1 mM glutamine (Hyclone, Logan, UT).
The PBMCs were cultured at 2×10^6 cells/ml. The cells were then incubated with the compounds of formula (V) and (VI) at the indicated concentrations for 1 hour before stimulation. The PBMCs were then stimulated for 24 h with the TLR7/8 agonist Resiquimod—R848 at 5 μg/ml and the TLR4 agonist Lipopolysaccharide—LPS at 100 ng/ml. The supernatants were collected for cytokine detection.
An assay of the cytokines in the supernatants of the cell cultures was carried out using the “LegendPlex Antivirus Human Panel” or “LegendPlex Human Inflammation Panel” (Biolegend, San Diego, USA) according to the manufacturer's instructions.

[9] = test system: peripheral blood mononuclear cells (PBMCs); experiment: Interferon secretion by PBMCs stimulated with HIV (THP1-Dual reporter); type: cell-based, human; settings: 20 μM, 1 h before stimulation by the HIV virus, 24 h
From the text: as §1

[10] = PBMCs incubated with compound 1 h before R848 5 μg/ml for 24 h, supernatants on reporter cells, QUANTI-Luc
[11] = Condition A: 20 μM, 1 h before stimulation of TLR7/8 (R848 5 μg/ml)
[12] = Condition B: 20 μM, 1 h before stimulation of TLR4 (LPS 100 ng/ml)
[13] = Condition C: 20 μM, 1 h before stimulation of TLR2 (LTA 1 μg/ml)
[14] = stimulation of TLR4 by LPS, 24 h
[15] = stimulation of TLR7/8 by R848, 24 h
[16] = Condition B: 20 μM, 1 h before stimulation by the influenza virus

SMILES: COC(=O)c1c(NC(=O)C(F)(F)F)c(C#N)nn1-c1cccc(OC)c1 [Compound of formula (IX), methyl 3-cyano-1-(3-methoxyphenyl)-4-(2,2,2-trifluoroacetamido)-1H-pyrazole-5-carboxylate]
- secretion of interferons by PBMCs [1]: inhibit
- activation of the IRF transcription factor in THP1-Dual cells (IRF transcription factor): inhibit
- IC50 (IRFs; [10]): 0.4 µM
- secretion of interferons on PBMCs (IRFs): capable of blocking

SMILES: COc1cccc(NN=C(C#N)C#N)c1 [Compound of formula (V), 2-[(3-methoxyphenyl)hydrazinylidene]propanedinitrile]
- production of TNFα on monocytes (monocytes [2]; [11]): inhibit
- production of TNFα on monocytes (monocytes [2]; [12]): inhibit
- production of TNFα on monocytes (monocytes [2]; [13]): inhibit
- IC50 [3]: 3.8 µM
- secretion of inflammatory cytokines on PBMCs [3]: capable of blocking
- activation of B lymphocytes (CD69 membrane activation marker) (B lymphocytes): capable of blocking
- secretion of interferons by PBMCs [1]: inhibit
- activation of the IRF transcription factor in THP1-Dual cells (IRF transcription factor): inhibit
- activation of the NF-κB transcription factor in THP1-Dual cells [4, 14]: inhibit
- activation of the NF-κB transcription factor in THP1-Dual cells [4, 15]: inhibit
- IC50 (IRFs): 3 µM
- secretion of interferons on PBMCs (IRFs): capable of blocking
- production of TNFα on plasmacytoid dendritic cells ([5]; Condition A: 20 μM, 1 h before stimulation of TLR7 (R848 5 μg/ml)): inhibit
- production of TNFα on plasmacytoid dendritic cells [5, 16]: inhibit
- production of TNFα on plasmacytoid dendritic cells ([5]; Condition C: 20 μM, 1 h before stimulation of TLR9 (CpG-A)): inhibit
- concentration from which transcription of the genes coding for TNFα and IL-1β is reduced [6]: ≥ 5 µM
- concentration from which transcription of the genes coding for TNFα, IL-6, MCP1 and IL-1β is reduced [6]: ≥ 5 µM
- production of TNFα by monocytes treated with control siRNAs (siCTL) (monocytes [7]): inhibit
- production of TNFα by monocytes treated with siRNAs targeting PDK1 (siPDK1) (monocytes [7]): fail to inhibit
- enzymatic activity of pyruvate kinase (PK) (pyruvate kinase (PK)): no impact
- secretion of TNFα, IL-1β, IL-6, IL-18, IL-23, IFNγ and MCP1 on PBMCs [8]: capable of blocking
- secretion of TNFα, IL-1β, IL-6, IL-10, IL-12 p70, IL-18, IL-23, IL-33, IFNα2, IFNγ and MCP1 on PBMCs [8]: capable of blocking
- secretion of interferons by PBMCs [9]: inhibit

SMILES: COc1ccc(NN=C(C#N)C#N)cc1 [Compound of formula (VI), 2-[(4-methoxyphenyl)hydrazinylidene]propanedinitrile]
- production of TNFα on monocytes (monocytes [2]; [11]): inhibit
- production of TNFα on monocytes (monocytes [2]; [12]): inhibit
- production of TNFα on monocytes (monocytes [2]; [13]): inhibit
- IC50 [3]: 5 µM
- secretion of inflammatory cytokines on PBMCs [3]: capable of blocking
- activation of B lymphocytes (CD69 membrane activation marker) (B lymphocytes): capable of blocking
- secretion of interferons by PBMCs [1]: inhibit
- activation of the IRF transcription factor in THP1-Dual cells (IRF transcription factor): inhibit
- activation of the NF-κB transcription factor in THP1-Dual cells [4, 14]: inhibit
- activation of the NF-κB transcription factor in THP1-Dual cells [4, 15]: inhibit
- IC50 (IRFs; [10]): 3 µM
- secretion of interferons on PBMCs (IRFs): capable of blocking
- production of TNFα on plasmacytoid dendritic cells [5]: inhibit
- production of TNFα on plasmacytoid dendritic cells [5, 16]: inhibit
- concentration from which transcription of the genes coding for TNFα and IL-1β is reduced [6]: ≥ 1 µM
- concentration from which transcription of the genes coding for TNFα, IL-6, MCP1 and IL-1β is reduced [6]: ≥ 2 µM
- production of TNFα by monocytes treated with control siRNAs (siCTL) (monocytes [7]): inhibit
- production of TNFα by monocytes treated with siRNAs targeting PDK1 (siPDK1) (monocytes [7]): fail to inhibit
- enzymatic activity of pyruvate kinase (PK) (pyruvate kinase (PK)): no impact
- secretion of TNFα, IL-1β, IL-6, IL-18, IL-23, IFNγ and MCP1 on PBMCs [8]: capable of blocking
- secretion of TNFα, IL-1β, IL-6, IL-10, IL-12 p70, IL-18, IL-23, IL-33, IFNα2, IFNγ and MCP1 on PBMCs [8]: capable of blocking
- secretion of interferons by PBMCs [9]: inhibit

SMILES: COc1cccc(-n2nc3c(N)cc(-c4ccccc4)nc3c2C(=O)NCc2ccccc2)c1 [Compound of formula (VII), 7-amino-N-benzyl-2-(3-methoxyphenyl)-5-phenyl-2H-pyrazolo[4,3-b]pyridine-3-carboxamide]
- activation of B lymphocytes (CD69 membrane activation marker) (B lymphocytes): capable of blocking
- IC50 (IRFs; [10]): 23 µM
- secretion of interferons on PBMCs (IRFs): capable of blocking

SMILES: COc1cccc(-n2nc3c(N)cc(-c4ccccc4)nc3c2C(=O)NN)c1 [Compound of formula (VIII), 7-amino-2-(3-methoxyphenyl)-5-phenyl-2H-pyrazolo[4,3-b]pyridine-3-carbohydrazide]
- activation of B lymphocytes (CD69 membrane activation marker) (B lymphocytes): capable of blocking
- secretion of interferons by PBMCs [1]: inhibit
- activation of the IRF transcription factor in THP1-Dual cells (IRF transcription factor): inhibit
- IC50 (IRFs; [10]): 23 µM
- secretion of interferons on PBMCs (IRFs): capable of blocking
- secretion of interferons by PBMCs [9]: inhibit
